{
  "source": "PubChem BioAssay (NCI)",
  "experiment_in_all_cases": "NCI anticancer screen, dose series, 384-well format",
  "key": {"A498 renal": {"test_system": "A498 renal"}, "CAKI-1 renal": {"test_system": "CAKI-1 renal"}, "HCT-116 colon": {"test_system": "HCT-116 colon"}, "MDA-MB-435 melanoma": {"test_system": "MDA-MB-435 melanoma"}, "A549 NSCLC": {"test_system": "A549 NSCLC"}, "IGROV1 ovarian": {"test_system": "IGROV1 ovarian"}, "DU-145 prostate": {"test_system": "DU-145 prostate"}, "SK-MEL-28 melanoma": {"test_system": "SK-MEL-28 melanoma"}, "OVCAR-4 ovarian": {"test_system": "OVCAR-4 ovarian"}, "HOP-62 NSCLC": {"test_system": "HOP-62 NSCLC"}, "OVCAR-5 ovarian": {"test_system": "OVCAR-5 ovarian"}, "PC-3 prostate": {"test_system": "PC-3 prostate"}, "COLO 205 colon": {"test_system": "COLO 205 colon"}, "TK-10 renal": {"test_system": "TK-10 renal"}, "MCF7 breast": {"test_system": "MCF7 breast"}, "SK-MEL-2 melanoma": {"test_system": "SK-MEL-2 melanoma"}, "UACC-257 melanoma": {"test_system": "UACC-257 melanoma"}, "SNB-75 CNS": {"test_system": "SNB-75 CNS"}, "CCRF-CEM leukemia": {"test_system": "CCRF-CEM leukemia"}, "HS 578T breast": {"test_system": "HS 578T breast"}, "MDA-MB-231 breast": {"test_system": "MDA-MB-231 breast"}, "U251 glioblastoma": {"test_system": "U251 glioblastoma"}, "K-562 leukemia": {"test_system": "K-562 leukemia"}, "M14 melanoma": {"test_system": "M14 melanoma"}, "UO-31 renal": {"test_system": "UO-31 renal"}, "MALME-3M melanoma": {"test_system": "MALME-3M melanoma"}, "SW-620 colon": {"test_system": "SW-620 colon"}, "SNB-19 CNS": {"test_system": "SNB-19 CNS"}, "T-47D breast": {"test_system": "T-47D breast"}, "BT-549 breast": {"test_system": "BT-549 breast"}},
  "note": "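GI50 = concentration required for 50% inhibition of growth. At the TGI there is no net growth.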",
  "data": [
    {"smiles": "Cc1cc(Nc2nc(N[C@@H](C)c3ncc(F)cn3)ncc2Cl)n[nH]1", "values": [
      {"measurement": "TGI", "setting": "A498 renal", "result": "> 100", "unit": "µM"},
      {"measurement": "GI50", "setting": "CAKI-1 renal", "result": 23.7, "unit": "µM"},
      {"measurement": "TGI", "setting": "CAKI-1 renal", "result": "> 100", "unit": "µM"},
      {"measurement": "GI50", "setting": "HCT-116 colon", "result": 17.4, "unit": "µM"},
      {"measurement": "TGI", "setting": "HCT-116 colon", "result": "> 100", "unit": "µM"},
      {"measurement": "GI50", "setting": "MDA-MB-435 melanoma", "result": 17.1, "unit": "µM"},
      {"measurement": "TGI", "setting": "MDA-MB-435 melanoma", "result": "> 100", "unit": "µM"},
      {"measurement": "GI50", "setting": "A549 NSCLC", "result": 30.4, "unit": "µM"},
      {"measurement": "TGI", "setting": "A549 NSCLC", "result": "> 100", "unit": "µM"},
      {"measurement": "GI50", "setting": "IGROV1 ovarian", "result": 27.8, "unit": "µM"},
      {"measurement": "TGI", "setting": "IGROV1 ovarian", "result": "> 100", "unit": "µM"},
      {"measurement": "GI50", "setting": "DU-145 prostate", "result": 37.1, "unit": "µM"},
      {"measurement": "TGI", "setting": "DU-145 prostate", "result": "> 100", "unit": "µM"},
      {"measurement": "GI50", "setting": "SK-MEL-28 melanoma", "result": 59.1, "unit": "µM"},
      {"measurement": "TGI", "setting": "SK-MEL-28 melanoma", "result": "> 100", "unit": "µM"},
      {"measurement": "GI50", "setting": "OVCAR-4 ovarian", "result": 77.8, "unit": "µM"},
      {"measurement": "TGI", "setting": "OVCAR-4 ovarian", "result": "> 100", "unit": "µM"},
      {"measurement": "GI50", "setting": "HOP-62 NSCLC", "result": 39.1, "unit": "µM"},
      {"measurement": "TGI", "setting": "HOP-62 NSCLC", "result": "> 100", "unit": "µM"},
      {"measurement": "GI50", "setting": "OVCAR-5 ovarian", "result": 45.1, "unit": "µM"},
      {"measurement": "TGI", "setting": "OVCAR-5 ovarian", "result": "> 100", "unit": "µM"},
      {"measurement": "GI50", "setting": "PC-3 prostate", "result": 42.1, "unit": "µM"},
      {"measurement": "TGI", "setting": "PC-3 prostate", "result": "> 100", "unit": "µM"},
      {"measurement": "GI50", "setting": "COLO 205 colon", "result": 41, "unit": "µM"},
      {"measurement": "TGI", "setting": "COLO 205 colon", "result": "> 100", "unit": "µM"},
      {"measurement": "GI50", "setting": "TK-10 renal", "result": 34.6, "unit": "µM"},
      {"measurement": "TGI", "setting": "TK-10 renal", "result": "> 100", "unit": "µM"},
      {"measurement": "GI50", "setting": "MCF7 breast", "result": 44.3, "unit": "µM"},
      {"measurement": "TGI", "setting": "MCF7 breast", "result": "> 100", "unit": "µM"},
      {"measurement": "GI50", "setting": "SK-MEL-2 melanoma", "result": 44.7, "unit": "µM"},
      {"measurement": "TGI", "setting": "SK-MEL-2 melanoma", "result": 85.1, "unit": "µM"},
      {"measurement": "GI50", "setting": "UACC-257 melanoma", "result": "> 100", "unit": "µM"},
      {"measurement": "TGI", "setting": "UACC-257 melanoma", "result": "> 100", "unit": "µM"},
      {"measurement": "GI50", "setting": "SNB-75 CNS", "result": 8.7, "unit": "µM"},
      {"measurement": "TGI", "setting": "SNB-75 CNS", "result": 27.9, "unit": "µM"},
      {"measurement": "GI50", "setting": "CCRF-CEM leukemia", "result": 20.7, "unit": "µM"},
      {"measurement": "TGI", "setting": "CCRF-CEM leukemia", "result": 45.1, "unit": "µM"},
      {"measurement": "GI50", "setting": "HS 578T breast", "result": 11.6, "unit": "µM"},
      {"measurement": "TGI", "setting": "HS 578T breast", "result": 29.9, "unit": "µM"},
      {"measurement": "GI50", "setting": "MDA-MB-231 breast", "result": 27.5, "unit": "µM"},
      {"measurement": "TGI", "setting": "MDA-MB-231 breast", "result": "> 100", "unit": "µM"},
      {"measurement": "GI50", "setting": "U251 glioblastoma", "result": 32.1, "unit": "µM"},
      {"measurement": "TGI", "setting": "U251 glioblastoma", "result": "> 100", "unit": "µM"},
      {"measurement": "GI50", "setting": "K-562 leukemia", "result": 27.9, "unit": "µM"},
      {"measurement": "TGI", "setting": "K-562 leukemia", "result": "> 100", "unit": "µM"},
      {"measurement": "GI50", "setting": "M14 melanoma", "result": 61.7, "unit": "µM"},
      {"measurement": "TGI", "setting": "M14 melanoma", "result": "> 100", "unit": "µM"},
      {"measurement": "GI50", "setting": "UO-31 renal", "result": 36.7, "unit": "µM"},
      {"measurement": "TGI", "setting": "UO-31 renal", "result": "> 100", "unit": "µM"},
      {"measurement": "GI50", "setting": "MALME-3M melanoma", "result": 52.8, "unit": "µM"},
      {"measurement": "TGI", "setting": "MALME-3M melanoma", "result": "> 100", "unit": "µM"},
      {"measurement": "GI50", "setting": "SW-620 colon", "result": 24.3, "unit": "µM"},
      {"measurement": "TGI", "setting": "SW-620 colon", "result": 91.3, "unit": "µM"},
      {"measurement": "GI50", "setting": "SNB-19 CNS", "result": 47.5, "unit": "µM"},
      {"measurement": "TGI", "setting": "SNB-19 CNS", "result": "> 100", "unit": "µM"},
      {"measurement": "GI50", "setting": "T-47D breast", "result": 29.8, "unit": "µM"},
      {"measurement": "TGI", "setting": "T-47D breast", "result": "> 100", "unit": "µM"},
      {"measurement": "GI50", "setting": "BT-549 breast", "result": 20.7, "unit": "µM"},
      {"measurement": "TGI", "setting": "BT-549 breast", "result": 78.1, "unit": "µM"}
    ]}
  ]
}
